Experimental data: PMC12722308, “A phase 1 study of orally administered 5-fluoro-2’-deoxycytidine with tetrahydrouridine in patients with refractory solid tumors” (Cancer Chemotherapy and Pharmacology, 2025)
“And” between values parts separate entries of the source, which are not always exact repeats. Equal values may be shown once. Read-outs that look alike come from different tables or passages of the source. Marks after values point to notes of the source that are not given here.

How the values were obtained:
[1] = Plasma pharmacokinetics by LC-MS/MS; type: in vivo, human; conditions: for Tmax: read-out: FdCyd Tmax; for Vd/F: read-out: FdCyd Vz/F; for half-life: read-out: FdCyd t½ (converted); for AUC(0-inf): read-out: FdCyd AUC0-inf; for Cmax: read-out: FdCyd Cmax; for FdCyd2h-D2: day 2; for FdCyd2h-D3: day 3
Method: (§1) Blood specimens for PK analysis were collected on Cycle 1 Day 1 (C1D1) prior to THU administration and then at 15, 30, and 45 min and 1, 2, 3, 4, 5, and 6 h after THU administration, as well as on C1D2 and C1D3 prior to and 2 h after THU administration. Urine specimens for PK analysis were collected on C1D1 prior to treatment and then at every void from 0 to 24 h after THU administration. All specimens for PK analysis were processed and analyzed by LC-MS/MS as described previously, and Phoenix WinNonlin software was used for data analysis.

[2] = Urinary excretion by LC-MS/MS; type: in vivo, human
Method: as §1

[3] = system: p16-expressing vimentin-positive (V+) CTCs; design: method as in PMID 32314030; conditions: intravenously administered FdCyd; 6 of 12; cited from earlier work
[4] = system: p16-expressing cytokeratin-positive (CK+) CTCs; test: CellSearch analysis of CTC p16 expression, CK+ CTCs; type: in vivo, human; conditions: 23 of 30 evaluable patients; oral FdCyd + THU
Method: Each blood specimen for CTC analysis (7.5 mL) was collected into a 10-mL CellSave preservative tube (Menarini Silicon Biosystems). Specimens were collected pre-treatment and then 6 h after THU administration on C1D1; prior to THU administration on […] and either C1D8 or […] (at the end of the first round of drug administration); on day 1 of cycle 2 and all subsequent cycles; and optionally at time of progression. Blood sample collection for CTC analysis was performed relative to the morning dose of THU for patients on the BID dose levels (DL10-11). CTC samples were processed and analyzed for p16, cytokeratin, and vimentin as described previously. Serial baseline blood specimens (C1D1 pre, C1D1 post, and […]) were obtained in light of baseline variability in CTC counts and p16 expression, and patients were considered assessable for cytokeratin-positive (CK^+) CTC p16 response if at least one of these baseline specimens (i.e., C1D1 pre, C1D1 post, and/or […]) and at least one post-treatment specimen (collected C2D1 or later) each contained ≥ 6 CTCs, as described. For patients with multiple baseline specimens, the specimen with the highest frequency of p16-positive CTCs was considered “baseline,” as described.

[5] = All FdCyd doses + THU 3000 mg oral (n=44), geom. mean (geom. SD)
[6] = All FdCyd doses + THU 6000 mg oral (n=11), geom. mean (geom. SD)
[7] = DL1: FdCyd 30 mg + THU 3000 mg oral (n=3), geom. mean (geom. SD)
[8] = DL2: FdCyd 60 mg + THU 3000 mg oral (n=4), geom. mean (geom. SD)
[9] = DL3: FdCyd 90 mg + THU 3000 mg oral (n=3), geom. mean (geom. SD)
[10] = DL4: FdCyd 120 mg + THU 3000 mg oral (n=3), geom. mean (geom. SD)
[11] = DL5-9: FdCyd 160 mg + THU 3000 mg oral (n=31), geom. mean (geom. SD)
[12] = DL10: FdCyd 60 mg + THU 6000 mg oral (n=8), geom. mean (geom. SD)
[13] = DL11: FdCyd 80 mg + THU 6000 mg oral (n=3), geom. mean (geom. SD)
[14] = Total, all dose levels (n=55), geom. mean (geom. SD)
[15] = human, plasma, oral, Total, all dose levels (n=55), geom. mean (geom. SD)
[16] = human, plasma, po, All FdCyd doses + THU 3000 mg oral (n=44), geom. mean (geom. SD)
[17] = human, plasma, po, All FdCyd doses + THU 6000 mg oral (n=11), geom. mean (geom. SD)
[18] = human, plasma, po, DL1: FdCyd 30 mg + THU 3000 mg oral (n=3), geom. mean (geom. SD)
[19] = human, plasma, po, DL2: FdCyd 60 mg + THU 3000 mg oral (n=4), geom. mean (geom. SD)
[20] = human, plasma, po, DL3: FdCyd 90 mg + THU 3000 mg oral (n=3), geom. mean (geom. SD)
[21] = human, plasma, po, DL4: FdCyd 120 mg + THU 3000 mg oral (n=3), geom. mean (geom. SD)
[22] = human, plasma, po, DL5-9: FdCyd 160 mg + THU 3000 mg oral (n=31), geom. mean (geom. SD)
[23] = human, plasma, po, DL10: FdCyd 60 mg + THU 6000 mg oral (n=8), geom. mean (geom. SD)
[24] = human, plasma, po, DL11: FdCyd 80 mg + THU 6000 mg oral (n=3), geom. mean (geom. SD)
[25] = plasma FdCyd at 2 h, DL1: FdCyd 30 mg + THU 3000 mg oral (n=3), geom. mean (geom. SD)
[26] = plasma FdCyd at 2 h, DL2: FdCyd 60 mg + THU 3000 mg oral (n=4), geom. mean (geom. SD)
[27] = plasma FdCyd at 2 h, DL3: FdCyd 90 mg + THU 3000 mg oral (n=3), geom. mean (geom. SD)
[28] = plasma FdCyd at 2 h, DL4: FdCyd 120 mg + THU 3000 mg oral (n=3), geom. mean (geom. SD)
[29] = plasma FdCyd at 2 h, DL5-9: FdCyd 160 mg + THU 3000 mg oral (n=31), geom. mean (geom. SD)
[30] = plasma FdCyd at 2 h, DL10: FdCyd 60 mg + THU 6000 mg oral (n=8), geom. mean (geom. SD)
[31] = plasma FdCyd at 2 h, DL11: FdCyd 80 mg + THU 6000 mg oral (n=3), geom. mean (geom. SD)

For `Nc1nc(=O)n([C@H]2C[C@H](O)[C@@H](CO)O2)cc1F` [FdCyd, 5-fluoro-2’-deoxycytidine], the “FdCyd Cl/F” value [1, 5] was 123 L/h and 123 (2.37)^c L/h, the “FdCyd Cmax/Dose” value [1, 5] was 4.0 (2.2)^b µg/L / mg and the “FdCyd Cl/F” value [1, 6] was 85.7 (1.65)^c L/h. For the same compound, the “FdCyd Cmax/Dose” value [1, 6] was 6.6 (1.6)^b µg/L / mg, the “FdCyd Cl/F” value [1, 7] was 212 (2.77) L/h and the “FdCyd Cmax/Dose” value [1, 7] was 3.0 (2.3) µg/L / mg. For the same compound, the “FdCyd Cl/F” value [1, 8] was 95.7 (3.08) L/h, the “FdCyd Cmax/Dose” value [1, 8] was 4.9 (3.0) µg/L / mg and the “FdCyd Cl/F” value [1, 9] was 84.7 (1.91) L/h. For the same compound, the “FdCyd Cmax/Dose” value [1, 9] was 5.8 (1.8) µg/L / mg, the “FdCyd AUC0-inf” value [1, 10] was 1.59 (2.43) mg/L•h and the “FdCyd Cl/F” value [1, 10] was 75.6 (2.43) L/h. The “FdCyd Cmax/Dose” value [1, 10] was 7.4 (2.0) µg/L / mg, the “FdCyd Cl/F” value [1, 11] was 133 (2.35) L/h and the “FdCyd Cmax/Dose” value [1, 11] was 3.6 (2.1) µg/L / mg. The “FdCyd Cl/F” value [1, 12] was 96.0 (1.71) L/h, the “FdCyd Cmax/Dose” value [1, 12] was 6.4 (1.6) µg/L / mg and the “FdCyd Cl/F” value [1, 13] was 65.8 (1.41) L/h. For the same compound, the “FdCyd Cmax/Dose” value [1, 13] was 7.1 (1.6) µg/L / mg, the “FdCyd Cl/F” value [1, 14] was 115 (2.26) L/h and the “FdCyd Cmax/Dose” value [1, 14] was 4.4 (2.1) µg/L / mg. For the same compound, the “FdCyd peak concentrations at the oral RP2D (160 mg) relative to those after the IV FdCyd RP2D of 100 mg/m^2” value ([1]; comparison with ref 8) was “approximately 20%”, the Tmax [1, 15] was roughly 72 min and the Vd/F [1, 15] was 98 L. The bioavailability ([1]; human, plasma, oral, from previous clearance (142 mL/min/m^2) vs current Cl/F (123 L/h), read-out: FdCyd bioavailability in the current study) was roughly 12%, the Tmax [1, 16] was 78 min and the Vd/F [1, 16] was 111 L. For the same compound, the half-life [1, 16] was 36 min, the Tmax [1, 17] was 54 min and the Vd/F [1, 17] was 56 L. The half-life [1, 17] was 30 min, the AUC(0-inf) [1, 18] was 140 ng·h/mL and the Cmax [1, 18] was 90 ng/mL. For the same compound, the Tmax [1, 18] was 54 min, the Vd/F [1, 18] was 187 L and the half-life [1, 18] was 36 min. The AUC(0-inf) [1, 19] was 630 ng·h/mL, the Cmax [1, 19] was 290 ng/mL and the Tmax [1, 19] was 60 min. The Vd/F [1, 19] was 90 L, the half-life [1, 19] was 42 min and the AUC(0-inf) [1, 20] was 1060 ng·h/mL. The Cmax [1, 20] was 530 ng/mL, the Tmax [1, 20] was 90 min and the Vd/F [1, 20] was 139 L. For the same compound, the half-life [1, 20] was 66 min, the Cmax [1, 21] was 890 ng/mL and the Tmax [1, 21] was 72 min. It also gave a Vd/F [1, 21] of 62 L, a half-life [1, 21] of 36 min and an AUC(0-inf) [1, 22] of 1200 ng·h/mL. For the same compound, the Cmax [1, 22] was 580 ng/mL, the Tmax [1, 22] was 84 min and the Vd/F [1, 22] was 114 L. For the same compound, the half-life [1, 22] was 36 min, the AUC(0-inf) [1, 23] was 630 ng·h/mL and the Cmax [1, 23] was 380 ng/mL. For the same compound, the Tmax [1, 23] was 48 min, the Vd/F [1, 23] was 63 L and the half-life [1, 23] was 30 min. For the same compound, the AUC(0-inf) [1, 24] was 1220 ng·h/mL, the Cmax [1, 24] was 570 ng/mL and the Tmax [1, 24] was 90 min. For the same compound, the Vd/F [1, 24] was 44 L, the half-life [1, 24] was 30 min and the concentration at 2 h ([1]; human, plasma FdCyd at 2 h, day 1, DL10: FdCyd 60 mg + THU 6000 mg oral (n=8), geom. mean (geom. SD), read-out: FdCyd2h-D1) was 317 ng/mL. For the same compound, the “Relationship between week 1 cumulative FdCyd exposure and occurrence of DLT” value ([1]; in vivo) was “no statistically significant relationship”, the “FdCyd dose from which the target Cmax of 1 µM (245 ng/mL) was reached by individual patients” value ([1]; oral FdCyd with THU) was no less than 60 mg and the FdCyd2h-D1 ([1]; plasma FdCyd at 2 h, day 1, DL2: FdCyd 60 mg + THU 3000 mg oral (n=4), geom. mean (geom. SD)) was 0.203 (3.87) mg/L. The FdCyd2h-D1 ([1]; plasma FdCyd at 2 h, day 1, DL3: FdCyd 90 mg + THU 3000 mg oral (n=3), geom. mean (geom. SD)) was 0.525 (1.79) mg/L, the FdCyd2h-D1 ([1]; plasma FdCyd at 2 h, day 1, DL4: FdCyd 120 mg + THU 3000 mg oral (n=3), geom. mean (geom. SD)) was 0.611 (3.17) mg/L and the FdCyd2h-D1 ([1]; plasma FdCyd at 2 h, day 1, DL5-9: FdCyd 160 mg + THU 3000 mg oral (n=31), geom. mean (geom. SD)) was 0.505 (1.92) mg/L. The FdCyd2h-D1 ([1]; plasma FdCyd at 2 h, day 1, DL11: FdCyd 80 mg + THU 6000 mg oral (n=3), geom. mean (geom. SD)) was 0.571 (1.64) mg/L, the FdCyd2h-D2 [1, 25] was 0.076 (3.80) mg/L and the FdCyd2h-D2 [1, 26] was 0.169 (3.80) mg/L. The FdCyd2h-D2 [1, 27] was 0.449 (1.55) mg/L, the FdCyd2h-D2 [1, 28] was 0.499 (9.47) mg/L and the FdCyd2h-D2 [1, 29] was 0.595 (3.29) mg/L. The FdCyd2h-D2 [1, 30] was 0.559 (1.63) mg/L, the FdCyd2h-D2 [1, 31] was 0.931 (1.99) mg/L and the FdCyd2h-D3 [1, 25] was 0.042 (2.6) mg/L. The FdCyd2h-D3 [1, 26] was 0.145 (1.14) mg/L, the FdCyd2h-D3 [1, 27] was 0.460 (2.89) mg/L and the FdCyd2h-D3 [1, 28] was 0.891 (2.08) mg/L. The FdCyd2h-D3 [1, 29] was 0.650 (1.98) mg/L, the FdCyd2h-D3 [1, 30] was 0.584 (1.60) mg/L and the FdCyd2h-D3 [1, 31] was 0.745 (2.48) mg/L. For the same compound, the “FdCyd urinary excretion over 0-24 hours of day 1” value ([2]; All FdCyd doses + THU 3000 mg, N=6, geom. mean (geom. SD)) was 0.083 (2.2) % dose, the “FdCyd urinary excretion over 0-24 hours of day 1” value ([2]; All FdCyd doses + THU 6000 mg, N=3, geom. mean (geom. SD)) was 0.11 (2.6) % dose and the “FdCyd urinary excretion over 0-24 hours of day 1” value ([2]; DL5-9: FdCyd 160 mg + THU 3000 mg, N=6, geom. mean (geom. SD)) was 0.083 (2.2) % dose. For the same compound, the “FdCyd urinary excretion over 0-24 hours of day 1” value ([2]; DL10: FdCyd 60 mg + THU 6000 mg, N=2, geom. mean (geom. SD)) was 0.15 (3.2) % dose, the “FdCyd urinary excretion over 0-24 hours of day 1” value ([2]; DL11: FdCyd 80 mg + THU 6000 mg, N=1) was 0.058 (-) % dose and the “Patients with increases in p16-expressing V+ CTCs” value [3] was 50%. For the same compound, the “Patients with a treatment-associated increase in the proportion of p16+CK+ CTCs” value [4] was 77%.
